Laboratory results from US20060263403A1, “Compositions and methods for controlling insects involving the tyramine receptor” (priority 2003, published 2006).
Like-named read-outs stand apart in the source and are kept apart here.

How the values were obtained:
[1] = molecular target: T1, Drosophila melanogaster tyramine receptor (TyrR) (Drosophila melanogaster, UniProt P22270, C261Y); experiment: biochemical; format: binding
T1 construct: The open reading frame encodes a protein of 601 amino acids; expressed in transfected cells
Protocol: All steps are performed at 4° C. or on ice. Cells grown in Drosophila media are harvested in the same media by scraping from the dishes and then rinsing dishes with PBS. The cells are centrifuged at 1000 g for 3 min, washed once with PBS and centrifuged again as previously described. The cells are suspended in ice cold hypotonic buffer (10 mM Tris-Cl, pH 7.4), incubated on ice for 10 min, and lysed using a glass dounce homogenizer and tight glass pestle (Kontes Glass Co., Vineland, N.J.) with 10 strokes. Nuclei are pelleted by centrifugation at 600 g for 5 min. The supernatant is decanted and centrifuged at 30,000 g for 30 min to pellet a crude membrane fraction. The pellet is suspended in binding buffer (50 mM Tris-Cl, 5 mM MgCl2, pH 7.4). Protein concentration is determined by the Bradford Assay (Bio-Rad Laboratories, Hercules, Calif.). Membranes are frozen on dry ice then stored at −75° C. in aliquots.
For the receptor binding assay, radioligand binding is performed in 500 μl binding buffer containing 10-50 μg membrane protein and 4 nM ^3H-tyramine. The binding reaction is incubated at 23° C. in the presence and absence of 10 μM unlabeled tyramine. Reactions are terminated after 60 min by addition of 3 ml ice cold binding buffer and filtered over GF/C filters that has been soaked for 30 min in 0.3% polyethylenimine. Filters are rinsed one additional time with 3 ml binding buffer. […] The binding activity of tyramine receptor is also studied in the presence and absence of five plant essential oils, shown in FIG. 1. Binding data is analyzed by Scatchard plots using the software GraphPad Prism (San Diego, Calif.). All binding analyses are performed 3 times with duplicate samples in each assay.
The binding activity of ^3H-tyramine to membranes expressing the tyramine receptor is performed in the presence and absence of five plant essential oils. These chemicals are selected based on their insecticidal activity and the absence or presence and location of the hydroxyl group within the molecule. […] The specific activity is calculated as the difference between counts in the presence and absence of test chemical.

[2] = molecular target: T1, Drosophila melanogaster tyramine receptor (TyrR); experiment: Intracellular calcium assay (Fura-2 AM) in S2 cells stably expressing pAC-TyrR; format: cell-based; details: for change in [Ca2+]i in response to plant essential oil: 25 μM, compared to EtOH treatment
Protocol: (§1) Cells are washed once with insect saline buffer. Cells are collected by scraping and suspended at 1×10^6 cells/ml in insect saline buffer with 5 μM Fura-2 AM. Cells are incubated at 23° C. for 1 hr in the dark, centrifuged, suspended in 1 ml insect saline buffer, and used immediately for calcium measurements. […] This assay is performed four separate times. Data are normalized by dividing each value by the background fluorescence at the beginning of the assay before adding test ligand.

[3] = molecular target: T1, Drosophila melanogaster tyramine receptor (TyrR); experiment: cell-based; format: cell-based; details: for decrease in cAMP production: 25 μM, vs ethanol-treated cells 0.9056±0.078 pmol cAMP
Protocol: (§2) Twenty four hours before cell treatment, 300,000 cells from clone#2 and control cells are plated in 1 ml media with 25 μg blasticidin/ml into 12 well dishes (4.5 cm^2). For cell treatment, the media is aspirated and 1 ml PBS with 300 μM IBMX (3-isobutyl-1-methylxanthine) and the test reagent is added. […] After 10 min incubation, the PBS is aspirated and cells are incubated with 70% ethanol for 12 hours at −20° C. The cellular debris is centrifuged, and then the supernatant is removed and lyophilized to dryness. The amount of cAMP in the extract is determined by using a cAMP binding protein from the ^3H-cAMP Biotrak Assay System (Amersham Biosciences, Piscataway, N.J.) as per the manufacturer's instructions. Cell treatment is performed 3 times with duplicates at each concentration. To test the effects of calcium chelation on cAMP levels, the cells are incubated with 20 μM BAPTA/AM for 10 min before the addition of TA.

[4] = test system: tyramine receptor mutant (TyrR^neo30) Drosophila melanogaster; format: in vivo; details: for toxicity against TyrR^neo30 strain compared with wild type: topical application
Protocol: (§3) Quantitative Structure Activity Relationships (QSARs) for five monoterpenoid plant essential oils is determined against wild type and tyramine receptor mutant (TyrR^neo30) Drosophila melanogaster strains. […] In addition, monocyclic-unsaturated alcohol (a-terpenoil), and a monocylic di-unsaturated ketone (L-carvone) are also tested. […] Acetonic solutions of plant essential oils are prepared and different concentrations of each, that gave from 10%-100% mortality, are applied by topical application. Three replicates, with 5 flies per replicate, are used for each concentration. Controls treated with the same volume (0.5 μl/fly) of acetone. […] To determine whether the tyramine receptor is involved in the toxicity of tested plant essential oils, tyramine receptor mutant (TyrR^neo30) Drosophila melanogaster strain is topically treated with a dose equivalent to the determined LD50 for wild type strain. The mortality is calculated 24 hrs after treatment. Three replicates and 5 insects per replicate are used for the bioassay of each chemical. This bioassay is repeated five times.

[5] = test system: wild type Drosophila melanogaster; experiment: Topical toxicity bioassay against wild type Drosophila melanogaster fly; format: in vivo; details: for Wild type-calculated LD50 values: topical application, probit analysis; for % Mortality at LD50 of wild type Drosophila melanogaster strain: Wild type: topical dose equal to wild type LD50, 24 h after treatment
Protocol: as §3

[6] = test system: S2 cells transfected with pAC lacking an insert; experiment: Intracellular calcium assay in S2 cells transfected with pAC lacking an insert; format: cell-based, Drosophila melanogaster; details: 10 μM TA, compared to untransfected S2 cells
Protocol: as §1

[7] = test system: S2 cells transfected with plasmid lacking TyrR; experiment: cAMP assay in control S2 cells transfected with plasmid lacking TyrR; format: cell-based, Drosophila melanogaster; details: TA up to 100 μM, compared to non-transfected cells
Protocol: as §2

[8] = molecular target: T1, Drosophila melanogaster tyramine receptor (TyrR); details: saturation binding, 0.1-30 nM 3H-tyramine, membranes of clone#2 S2 cells; read-out: Kd for specific binding

T1 sequence (P22270 27-601 C261Y): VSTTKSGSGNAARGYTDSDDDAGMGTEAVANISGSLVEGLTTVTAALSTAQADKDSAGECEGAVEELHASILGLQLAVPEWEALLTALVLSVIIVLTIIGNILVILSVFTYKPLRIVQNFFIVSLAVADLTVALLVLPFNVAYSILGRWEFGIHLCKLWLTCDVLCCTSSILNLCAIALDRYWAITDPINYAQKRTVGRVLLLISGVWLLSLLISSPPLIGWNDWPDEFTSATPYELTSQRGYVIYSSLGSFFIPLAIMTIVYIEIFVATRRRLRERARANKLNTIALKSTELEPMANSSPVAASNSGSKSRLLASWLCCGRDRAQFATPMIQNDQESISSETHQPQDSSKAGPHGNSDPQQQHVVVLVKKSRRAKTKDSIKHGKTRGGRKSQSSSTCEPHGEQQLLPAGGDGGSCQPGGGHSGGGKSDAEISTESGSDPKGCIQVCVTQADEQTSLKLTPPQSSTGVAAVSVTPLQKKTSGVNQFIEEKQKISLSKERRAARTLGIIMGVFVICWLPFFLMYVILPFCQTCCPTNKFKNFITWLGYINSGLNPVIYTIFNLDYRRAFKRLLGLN

Question: With `NCC(O)c1ccc(O)cc1` (racemic) [Octopamine (OA), DL-octopamine] as the compound, how does the Ki ([1]; competitive binding vs 4 nM 3H-tyramine, membranes from Schneider Drosophila cells expressing TyrR, mean and standard deviation, read-out: Ki) read?
Answer: The Ki was 28.7 µM.

Question: `CC(=O)OCOC(=O)CN(CC(=O)OCOC(C)=O)c1ccccc1OCCOc1ccccc1N(CC(=O)OCOC(C)=O)CC(=O)OCOC(C)=O` [BAPTA/AM] was tested. Which “effect on TA-induced increase in free [Ca2+]i” value ([2]; 20 μM BAPTA/AM, 1 μM TA) did it give?
Answer: Its value is “inhibit the increase in free [Ca^2+]i”.

Question: `CN(C)CCCN1c2ccccc2Sc2ccc(Cl)cc21` [Chlorpromazine] was tested. Which Ki [1] did it give?
Answer: The Ki was 0.193 ± 0.05 µM.

Question: With `NCCc1ccc(O)c(O)c1` [Dopamine (DA), Dopamine] as the compound, how does the Ki [1] read?
Answer: Its Ki is 57.5 ± 3.91 µM.

Question: For `NCCc1c[nH]cn1` [Histamine (His), Histamine], which Ki [1] is on record?
Answer: Its Ki is 193 ± 16.8 µM.

Question: Which “decrease in cAMP production” value ([3]; 300 μM IBMX) does the source give for `C=C(C)[C@@H]1CC=C(C)C(=O)C1` [L-carvone, p-mentha-6,8-dien-2-one] here?
Answer: Its value is 24%.

Question: What about the “change in [Ca2+]i in response to plant essential oil” value (from here on “change … to plant essential oil”) [2] of the same compound?
Answer: The value was “remarkable increase in [Ca^2+]i”.

Question: What about the “toxicity against TyrR^neo30 strain compared with wild type” value [4] of the same compound?
Answer: The value was “does not affect the toxicity”.

Question: What about the “% Mortality at LD50 of wild type Drosophila melanogaster strain: TyrR^neo30” value ([4]; topical dose equal to wild type LD50, 24 h after treatment) of the same compound?
Answer: The value was 38.7%.

Question: What about the “Wild type-calculated LD50 values” [5] of the same compound?
Answer: The value was 2.3 μg/fly.

Question: What about the “% Mortality at LD50 of wild type Drosophila melanogaster strain: Wild type” value [5] of the same compound?
Answer: Its value is 37.3%.

Question: And the “toxicity of L-carvone relative to a-terpineol” value ([5]; wild type strain)?
Answer: Its value is “about 5 fold”.

Question: `Cc1ccc(N(CC2=NCCN2)c2cccc(O)c2)cc1` [Phentolamine] was tested. Which Ki [1] did it give?
Answer: Its Ki is 0.125 ± 0.02 µM.

Question: How did the Ki [1] turn out when `NCCc1c[nH]c2ccc(O)cc12` [Serotonin (SE), Serotonin] was run?
Answer: Its Ki is 89.5 ± 9.01 µM.

Question: For `NCCc1ccc(O)cc1` [Tyramine (TA), Tyramine], which IC50 [3] is on record?
Answer: The IC50 was 5.8 µM.

Question: What about the “decrease in the basal level of cAMP” value ([3]; TA 10 μM, 300 μM IBMX, basal 0.601±0.080 pmol cAMP) of the same compound?
Answer: The value was 18%.

Question: What about the “effect on [Ca2+]i in control cells” value [6] of the same compound?
Answer: Its value is “does not increase the level of [Ca^2+]i”.

Question: What about the Ki [1] of the same compound?
Answer: Its Ki is 1.27 µM.

Question: What about the “affinity of TA relative to DL-octopamine for TyrR” value ([1]; ratio of Ki values) of the same compound?
Answer: The value was “about 22.58 fold”.

Question: And the “change in [Ca2+]i in response to TA” value ([2]; 1 μM TA, clone#2 cells)?
Answer: The value was “rapid increase in [Ca^2+]i”.

Question: What about the “duration of transient peak in [Ca2+]i level” value ([2]; TA application) of the same compound?
Answer: The value was about 20 s.

Question: What about the “lowest concentration that can increase [Ca2+]i levels” value ([2]; clone#2 cells) of the same compound?
Answer: Its value is 20 nM.

Question: What about the “effect on cAMP levels in control cells” value [7] of the same compound?
Answer: Its value is “significant effects on cAMP levels as compared to non-transfected cells are not produced”.

Question: Which Ki [1] does the source give for `COC(=O)[C@@H]1[C@H]2C[C@H]3c4[nH]c5ccccc5c4CCN3C[C@@H]2CC[C@@H]1O` [Yohimbine] here?
Answer: Its Ki is 0.071 ± 0.001 µM.

Question: Which Kd [8] does the source give for `NCCc1ccc(O)cc1` [^3H-tyramine] here?
Answer: The Kd was 0.00256 µM.

Question: Which “decrease in cAMP production” value ([3]; 300 μM IBMX) does the source give for `CC1=CCC(C(C)(C)O)CC1` (stereo not drawn) [a-terpineol, p-menth-1-en-8-ol] here?
Answer: Its value is 22%.

Question: And the “change … to plant essential oil” value [2]?
Answer: Its value is “remarkable increase in [Ca^2+]i”.

Question: With `Cc1ccc(C(C)C)cc1` [p-cymene, 1-methyl-4-(1-methylethyl)benzene] as the compound, how does the “decrease in cAMP production” value ([3]; 300 μM IBMX) read?
Answer: Its value is 13%.

Question: And the “change … to plant essential oil” value [2]?
Answer: Its value is “slight increase in [Ca^2+]i”.

Question: What about the “% Mortality at LD50 of wild type Drosophila melanogaster strain: TyrR^neo30” value ([4]; in vivo) of the same compound?
Answer: The value was 56.0%.

Question: What about the “toxicity against TyrR^neo30 strain compared with wild type” value [4] of the same compound?
Answer: Its value is “does not affect the toxicity”.

Question: What about the “Wild type-calculated LD50 values” [5] of the same compound?
Answer: The value was 15.5 μg/fly.

Question: What about the “% Mortality at LD50 of wild type Drosophila melanogaster strain: Wild type” value [5] of the same compound?
Answer: The value was 57.3%.
